Assay results taken from PubChem BioAssay (NCI).
Several values for one entry are separate records, joined by “and”; a condition that tells them apart may be missing. Equal values may be shown once.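 Protocol summary: plate cells (96-well), add compound at 5 concentrations, incubate 48 h, interpolate endpoints linearly. GI50: concentration for 50% inhibition of growth. The concentration for full growth arrest is given as TGI.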

Tests used:
Test in all cases: DTP human tumour cell line panel, 48 h
CAKI-1 renal = test system: CAKI-1 renal
HL-60(TB) leukemia = test system: HL-60(TB) leukemia
HT29 colon = test system: HT29 colon
LOX IMVI melanoma = test system: LOX IMVI melanoma
MOLT-4 leukemia = test system: MOLT-4 leukemia
NCI-H23 lung = test system: NCI-H23 lung
SF-295 CNS = test system: SF-295 CNS
SF-539 CNS = test system: SF-539 CNS
SNB-19 CNS = test system: SNB-19 CNS
UO-31 renal = test system: UO-31 renal

Row | SMILES | GI50 (CAKI-1 renal) | TGI (CAKI-1 renal) | GI50 (HL-60(TB) leukemia) | TGI (HL-60(TB) leukemia) | GI50 (HT29 colon) | TGI (HT29 colon) | GI50 (LOX IMVI melanoma) | TGI (LOX IMVI melanoma) | GI50 (MOLT-4 leukemia) | TGI (MOLT-4 leukemia) | GI50 (NCI-H23 lung) | TGI (NCI-H23 lung) | GI50 (SF-295 CNS) | TGI (SF-295 CNS) | GI50 (SF-539 CNS) | GI50 (SNB-19 CNS) | TGI (SNB-19 CNS) | GI50 (UO-31 renal) | TGI (UO-31 renal) | TGI (SF-539 CNS)
1 | O=C(Nc1ccccc1C(=O)N/N=C(\c1ccccc1)c1ccccn1)c1ccc(F)cc1 | 0.42 µM | > 100 µM | 0.297 µM | 2.01 µM | 0.165 µM | > 100 µM | 0.247 µM | > 100 µM | 0.284 µM | > 100 µM | 0.595 µM | > 100 µM | 0.262 µM | > 100 µM | 0.298 µM | 0.502 µM | > 100 µM | 0.0828 µM | 7.25 µM | –
2 | CC1CCC2N(C1)CC1C3(O)CC45OC6(O)C(O)CCC4(C)C6CCC5C3(O)CC(O)C1(O)C2(C)O (stereo unspecified) | – | > 100 µM | – | > 100 µM | – | > 100 µM | – | > 100 µM | – | > 100 µM | – | > 100 µM | – | > 100 µM | – | – | > 100 µM | – | > 100 µM | > 100 µM
3 | COc1cc2cc3c4c(cc(OC)c(OC)c4c2cc1OC)CCN3C(=O)CCC(=O)NCCCN(C)C | – | > 100 µM | – | 56.9 µM | – | 51.7 µM | – | 27.3 µM | – | > 100 µM | – | > 100 µM | – | > 100 µM | – | – | > 100 µM | – | > 100 µM | 59.3 µM
4 | COc1ccc(S(=O)(=O)N(C)CC(=O)O)cc1 | – | > 100 µM | – | > 100 µM | – | > 100 µM | – | > 100 µM | – | > 100 µM | – | > 100 µM | – | > 100 µM | – | – | > 100 µM | – | > 100 µM | > 100 µM
5 | C=[CH][Sn]([CH]=C)([O]c1cccc2cccnc12)[O]c1cccc2cccnc12 | 6.73 µM | 22.8 µM | 0.619 µM | 2.91 µM | 3.26 µM | 7.14 µM | 1.46 µM | 4.86 µM | 1.42 µM | 11.1 µM | 2.32 µM | 6.87 µM | 5.27 µM | 19.4 µM | 2.85 µM | 8.36 µM | 23.8 µM | 3.25 µM | 9.31 µM | 9.27 µM
6 | COc1cc([N+](=O)[O-])c2ncccc2c1[N+](=O)[O-] | 1.65 µM | 4 µM | 3.39 µM | > 100 µM | 2.28 µM | 5.52 µM | 2.31 µM | 8.29 µM | 4.92 µM | > 100 µM | 3.91 µM | 16.1 µM | 4.51 µM | 14.3 µM | 3.61 µM | 15.9 µM | 30.8 µM | – | – | 13.6 µM
7 | COc1ccc2nc3ccccc3c(NCCCCN(C)CCCl)c2c1 | – | 0.381 µM | – | 0.0435 µM | – | 1.46 µM | – | 0.539 µM | – | – | – | > 100 µM | – | 1.17 µM | – | – | 0.707 µM | – | 1.22 µM | 0.284 µM
8 | Nc1ccc2c(c1)c(N)nn2C(=O)Nc1ccc(Cc2ccccc2)cc1 | 4.3 µM | 26.8 µM | 3.46 µM | 17.2 µM | 4.51 µM | 17.2 µM | 3.38 µM | 16 µM | 4.48 µM | 24.3 µM | 16.9 µM | 39.5 µM | 3.96 µM | 15.1 µM | 8.7 µM | 13.9 µM | 27.3 µM | 4.72 µM | 32.6 µM | 22.1 µM
9 | N=C1C=C(N)C(=O)c2[nH]c(=O)ccc21 | – | 13 µM | – | 4.87 µM | – | 4.5 µM | – | 3.69 µM | – | – | – | 4.09 µM | – | 31.2 µM | – | – | 3.86 µM | – | – | 3.73 µM
10 | CC1COCC(C)N1C1=C(Cl)C(=O)c2ccccc2C1=O (stereo unspecified) | 1.56 µM | 2.97 µM | 2.02 µM | 5.03 µM | 17.5 µM | 45.6 µM | 1.41 µM | 2.77 µM | 2.77 µM | 7.5 µM | 11.2 µM | 24.7 µM | 2.94 µM | 17.7 µM | 14.3 µM | 14.9 µM | 28.1 µM | 1.39 µM | 2.73 µM | 28.1 µM
11 | CC1CC2(C)CC(=O)C1C1C(=O)N(CCN3CCCCC3)C(=O)C12 (stereo unspecified) | > 100 µM | > 100 µM | > 100 µM | > 100 µM | > 100 µM | > 100 µM | > 100 µM | > 100 µM | > 100 µM | > 100 µM | > 100 µM | > 100 µM | > 100 µM | > 100 µM | > 100 µM | > 100 µM | > 100 µM | > 100 µM | > 100 µM | > 100 µM
12 | COc1cccc(NC(=O)C(=O)C(C(C)=O)c2nc3ccc(Cl)cc3[nH]c2=O)c1 (stereo unspecified) | – | > 100 µM | – | > 100 µM | – | > 100 µM | – | > 100 µM | – | > 100 µM | – | > 100 µM | – | > 100 µM | – | – | > 100 µM | – | > 100 µM | > 100 µM
13 | C/C=C1\C(=O)OC2CCN3CCC(COC(=O)C(C)(O)C(C)C1O)C23 (stereo unspecified) | – | > 100 µM | – | > 100 µM | – | > 100 µM | – | > 100 µM | – | > 100 µM | – | > 100 µM | – | > 100 µM | – | – | > 100 µM | – | > 100 µM | > 100 µM
14 | FC1OC2OC1C(OCc1ccccc1)C(OCc1ccccc1)C2OCc1ccccc1 (stereo unspecified) | – | > 100 µM | – | 62.9 µM | – | > 100 µM | – | > 100 µM | – | 67.4 µM | – | > 100 µM | – | > 100 µM | – | – | > 100 µM | – | > 100 µM | > 100 µM
15 | S=c1nc(-c2ccnc(-c3nc(=S)[nH][nH]3)c2)[nH][nH]1 | – | > 100 µM | – | > 100 µM | – | > 100 µM | – | > 100 µM | – | > 100 µM | – | > 100 µM | – | > 100 µM | – | – | > 100 µM | – | > 100 µM | > 100 µM
16 | CC1OC(OC2CCC3(C=O)C4CCC5(C)C(C6=CC(=O)OC6)CCC5(O)C4CCC3(O)C2)C(O)C(O)C1O (stereo unspecified) | – | 4.15e-05 µM | – | 0.000107 µM | – | – | – | 6.73e-05 µM | – | 1.6e-05 µM | – | 4.11e-05 µM | – | 6.69e-05 µM | – | – | 0.0657 µM | – | – | 5.65e-05 µM
17 | Nc1ccc(S(=O)(=O)Nc2cnc3c(Cl)cccc3n2)cc1 | 99.2 µM | > 698 µM | > 75 µM | 637 µM | > 82.8 µM | > 750 µM | > 20.2 µM | > 736 µM | 65.6 µM | 565 µM | > 82.4 µM | 549 µM | – | 737 µM | > 94.6 µM | > 77.5 µM | 620 µM | > 55.8 µM | > 56.2 µM and 742 µM | 513 µM
